Measurements taken from the NIST ThermoML archive (doi:10.1016/j.jct.2017.11.017).
Numbers after ± are expanded uncertainties.

Assay: activity coefficient (dimensionless); of the first substance listed, at infinite dilution; xn = mol fraction of the nth substance listed
Details: 101.33 kPa, Liquid, Chromatography, x1 = 0

Row | SMILES | activity coefficient (318.15 K) | activity coefficient (328.15 K) | activity coefficient (338.15 K) | activity coefficient (348.15 K) | activity coefficient (358.15 K) | activity coefficient (368.15 K) | activity coefficient (298.15 K) | activity coefficient (308.15 K)
1 | CCCCO [butan-1-ol] + C[n+]1ccn(CCCO)c1.N#CN=C=[N-] | 2.8 ± 0.19 | 2.75 ± 0.19 | 2.73 ± 0.19 | 2.7 ± 0.18 | 2.69 ± 0.18 | 2.68 ± 0.18 |  | 
2 | CCCCCC [hexane] + C[n+]1ccn(CCCO)c1.N#CN=C=[N-] | 286 ± 20 | 257 ± 18 | 233 ± 16 |  |  |  | 357 ± 25 | 319 ± 22
3 | CCCc1ccccc1 [propylbenzene] + C[n+]1ccn(CCCO)c1.N#CN=C=[N-] | 26.8 ± 1.8 | 27.3 ± 1.9 | 27.6 ± 1.9 | 27.9 ± 1.9 | 28.2 ± 1.9 | 28.4 ± 1.9 |  | 
4 | CCC(C)O (stereo not given) [butan-2-ol] + C[n+]1ccn(CCCO)c1.N#CN=C=[N-] | 2.74 ± 0.19 | 2.72 ± 0.19 | 2.72 ± 0.19 | 2.72 ± 0.19 | 2.7 ± 0.18 | 2.71 ± 0.18 |  | 
5 | CCC(=O)OC [methyl propanoate] + C[n+]1ccn(CCCO)c1.N#CN=C=[N-] | 5.29 ± 0.36 | 5.48 ± 0.37 | 5.73 ± 0.39 | 5.92 ± 0.4 | 6.14 ± 0.42 | 6.34 ± 0.43 |  | 
6 | CCCCCCCCC [nonane] + C[N+]1(CCCO)CCOCC1.N#C[N-]C#N | 1870 ± 130 | 1570 ± 110 | 1340 ± 92 | 1160 ± 80 | 994 ± 69 | 867 ± 60 |  | 2260 ± 160
7 | CCC(C)(C)OC [2-methoxy-2-methylbutane] + C[N+]1(CCCO)CCOCC1.N#C[N-]C#N | 90.2 ± 6.2 | 84.1 ± 5.8 | 78.6 ± 5.4 | 74 ± 5.1 | 69.9 ± 4.8 | 66 ± 5 |  | 97.2 ± 6.7
8 | C=CCCCCC [1-heptene] + C[n+]1ccn(CCCO)c1.N#CN=C=[N-] | 176 ± 12 | 166 ± 11 | 156 ± 11 | 146 ± 10 | 139 ± 10 |  | 208 ± 14 | 194 ± 13
9 | C1CCCCC1 [cyclohexane] + C[N+]1(CCCO)CCOCC1.N#C[N-]C#N | 319 ± 22 | 260 ± 18 | 219 ± 15 | 184 ± 13 | 159 ± 11 | 138 ± 9 |  | 381 ± 26
10 | c1ccncc1 [pyridine] + C[N+]1(CCCO)CCOCC1.N#C[N-]C#N | 1.71 ± 0.11 | 1.8 ± 0.12 | 1.89 ± 0.13 | 1.97 ± 0.13 | 2.06 ± 0.14 | 2.15 ± 0.15 |  | 
11 | CCCC(=O)OC [methyl butanoate] + C[n+]1ccn(CCCO)c1.N#CN=C=[N-] | 9.03 ± 0.62 | 9.36 ± 0.64 | 9.67 ± 0.66 | 9.96 ± 0.68 | 10.3 ± 0.7 | 10.6 ± 0.7 |  | 
12 | Cc1ccc(C)cc1 [1,4-dimethylbenzene] + C[N+]1(CCCO)CCOCC1.N#C[N-]C#N | 23.2 ± 1.6 | 23.3 ± 1.6 | 23.5 ± 1.6 | 23.7 ± 1.6 | 23.8 ± 1.6 | 24.1 ± 1.6 |  | 
13 | C=CCCCCCCCC [1-decene] + C[n+]1ccn(CCCO)c1.N#CN=C=[N-] | 764 ± 53 | 710 ± 49 | 662 ± 46 | 627 ± 43 | 590 ± 41 |  | 879 ± 61 | 819 ± 56
14 | Cc1ccccc1C [1,2-dimethylbenzene] + C[n+]1ccn(CCCO)c1.N#CN=C=[N-] | 10.9 ± 0.7 | 11.3 ± 0.8 | 11.7 ± 0.8 | 12 ± 0.8 | 12.5 ± 0.9 | 12.8 ± 0.9 |  | 
15 | CCOCC [diethyl ether] + C[n+]1ccn(CCCO)c1.N#CN=C=[N-] | 20.3 ± 1.4 | 20.3 ± 1.4 | 20.5 ± 1.4 | 20.6 ± 1.4 | 20.7 ± 1.4 | 20.8 ± 1.4 |  | 
16 | C1CCCCC1 [cyclohexane] + C[n+]1ccn(CCCO)c1.N#CN=C=[N-] | 97.9 ± 6.7 | 91.1 ± 6.2 | 85.5 ± 5.9 | 80.4 ± 5.5 | 76.6 ± 5.2 |  | 115 ± 8 | 105 ± 7
17 | CC(C)c1ccccc1 [isopropylbenzene] + C[N+]1(CCCO)CCOCC1.N#C[N-]C#N | 52.5 ± 3.6 | 51.2 ± 3.5 | 50.3 ± 3.4 | 49.2 ± 3.4 | 48.4 ± 3.3 | 47.5 ± 3.3 |  | 
18 | CC(C)=O [acetone] + C[N+]1(CCCO)CCOCC1.N#C[N-]C#N | 2.24 ± 0.15 | 2.3 ± 0.16 | 2.37 ± 0.16 | 2.45 ± 0.17 | 2.51 ± 0.17 | 2.59 ± 0.18 |  | 
19 | C1CCOC1 [tetrahydrofuran] + C[N+]1(CCCO)CCOCC1.N#C[N-]C#N | 4.57 ± 0.31 | 4.61 ± 0.31 | 4.67 ± 0.32 | 4.72 ± 0.32 | 4.78 ± 0.33 | 4.83 ± 0.33 |  | 
20 | C#CCCC [1-pentyne] + C[n+]1ccn(CCCO)c1.N#CN=C=[N-] | 11.7 ± 0.8 | 11.8 ± 0.8 | 12 ± 0.8 | 12.1 ± 0.8 | 12.3 ± 0.8 |  | 11.3 ± 0.8 | 11.5 ± 0.8
21 | Cc1cccc(C)c1 [1,3-dimethylbenzene] + C[n+]1ccn(CCCO)c1.N#CN=C=[N-] | 14.1 ± 1 | 14.5 ± 1 | 14.9 ± 1 | 15.2 ± 1 | 15.6 ± 1.1 | 16 ± 1.1 |  | 
22 | CCCCO [butan-1-ol] + C[N+]1(CCCO)CCOCC1.N#C[N-]C#N | 4.66 ± 0.32 | 4.5 ± 0.31 | 4.39 ± 0.3 | 4.26 ± 0.29 | 4.17 ± 0.28 | 4.08 ± 0.28 |  | 
23 | CC(C)O [propan-2-ol] + C[n+]1ccn(CCCO)c1.N#CN=C=[N-] | 1.92 ± 0.13 | 1.92 ± 0.13 | 1.92 ± 0.13 | 1.91 ± 0.13 | 1.91 ± 0.13 | 1.92 ± 0.13 |  | 
24 | C1CCCCCCC1 [cyclooctane] + C[N+]1(CCCO)CCOCC1.N#C[N-]C#N | 478 ± 33 | 408 ± 28 | 345 ± 24 | 298 ± 20 | 260 ± 18 | 229 ± 16 |  | 571 ± 39
25 | CC1CCCCC1 [methylcyclohexane] + C[N+]1(CCCO)CCOCC1.N#C[N-]C#N | 508 ± 35 | 404 ± 28 | 321 ± 22 |  |  |  | 865 ± 60 | 654 ± 45
26 | C#CCCCCC [1-heptyne] + C[N+]1(CCCO)CCOCC1.N#C[N-]C#N | 79.8 ± 5.5 | 76.7 ± 5.3 | 74 ± 5.1 | 72 ± 4.9 | 69.8 ± 4.8 | 68.1 ± 4.7 |  | 82.9 ± 5.7
27 | C=Cc1ccccc1 [styrene] + C[n+]1ccn(CCCO)c1.N#CN=C=[N-] | 5.97 ± 0.41 | 6.25 ± 0.43 | 6.57 ± 0.45 | 6.82 ± 0.46 | 7.14 ± 0.49 | 7.39 ± 0.5 |  | 
28 | CC(C)CO [2-methyl-1-propanol] + C[N+]1(CCCO)CCOCC1.N#C[N-]C#N | 4.72 ± 0.32 | 4.54 ± 0.31 | 4.38 ± 0.3 | 4.25 ± 0.29 | 4.12 ± 0.28 | 4 ± 0.27 |  | 
